Data: article PMC11391043, “Revealing the pH-dependent conformational changes in sol g 2.1 protein and potential ligands binding” (Scientific Reports, 2024)

How the values were obtained:
rSol g 2.1 protein [1] = molecular target: T1, rSol g 2.1 protein (Solenopsis geminata, UniProt A0A9E7V488); test: Fluorescence binding assay of 1-NPN probe with rSol g 2.1 (Scatchard plots); conditions: 50 mM Tris-HCl, ± SEM, triplicate
T1 sequence (A0A9E7V488 1-119): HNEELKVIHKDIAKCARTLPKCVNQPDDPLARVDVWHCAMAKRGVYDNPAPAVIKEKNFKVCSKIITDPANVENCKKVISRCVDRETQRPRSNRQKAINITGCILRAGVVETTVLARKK
Description: The FCBA is that a fluorescence probe, N-phenyl-1-naphthylamine (1-NPN, purity > 98%, Sigma Aldrich) binds with the hydrophobic binding cavity of the protein, especially with Tryptophan amino acid (Trp). Then Trp will transfer energy to 1-NPN-probe, leading to an increased emission wavelength at approximately 400 nm with dose-dependent. Besides, when the aliquot of a ligand competitor, the ligand will be competed for 1-NPN-probe, resulting in a decreased emission wavelength at 400 nm. In this study, we performed the FCBA to determine the binding activity of Sol g 2.1 protein and the potential ligands. […] Fluorescence intensity was measured using a spectrofluorometer (FluoroMax + SpectroFluorometer, Horiba Scientific) with excitation at 337 nm and emission scanning from 370 to 490 nm, at room temperature, in triplicate. The equilibrium dissociation (Kd) value was determined by plotting the fluorescence intensity at 400 nm against each 1-NPN concentration. The data were fitted to a one-site-specific binding model as follows: Y = Bmax*X/(Kd + X), where Y, X, Bmax, and Kd are the fluorescence intensity (counts/second), fluorescence probe concentration (μM), the maximum specific binding in the same units as Y, and the equilibrium dissociation constant in the same units as X.

rSol g 2.1 protein [2] = molecular target: T1, rSol g 2.1 protein; test: Fluorescence competitive binding assay (FCBA), 1-NPN displacement; conditions: 2 µM rSol g 2.1, 5 µM 1-NPN
Description: The FCBA is that a fluorescence probe, N-phenyl-1-naphthylamine (1-NPN, purity > 98%, Sigma Aldrich) binds with the hydrophobic binding cavity of the protein, especially with Tryptophan amino acid (Trp). Then Trp will transfer energy to 1-NPN-probe, leading to an increased emission wavelength at approximately 400 nm with dose-dependent. Besides, when the aliquot of a ligand competitor, the ligand will be competed for 1-NPN-probe, resulting in a decreased emission wavelength at 400 nm. In this study, we performed the FCBA to determine the binding activity of Sol g 2.1 protein and the potential ligands. To examine affinity binding, a stock solution of 5 mM 1-NPN in methanol (HPLC grade) was gradually added to a solution containing 2 µM rSol g 2.1 in 50 mM Tris–HCl buffer (pH 5.5 and pH 7.4) with 1% tween 20. Final concentrations of 0, 0.5, 1, 2, 4, 6, 8, 10, and 12 µM of 1-NPN were achieved, with methanol serving as a negative control. Fluorescence intensity was measured using a spectrofluorometer (FluoroMax + SpectroFluorometer, Horiba Scientific) with excitation at 337 nm and emission scanning from 370 to 490 nm, at room temperature, in triplicate. The equilibrium dissociation (Kd) value was determined by plotting the fluorescence intensity at 400 nm against each 1-NPN concentration. The data were fitted to a one-site-specific binding model as follows: Y = Bmax*X/(Kd + X), where Y, X, Bmax, and Kd are the fluorescence intensity (counts/second), fluorescence probe concentration (μM), the maximum specific binding in the same units as Y, and the equilibrium dissociation constant in the same units as X.
The potential ligands, including (E)-β-Farnesene, α-Caryophyllene, and 1-Octen-3-ol (all, Tokyo Chemical Industry (TCI), Tokyo, Japan) were used as competitors in the FCBA. For this, a mixture of 2 µM rSol g 2.1 protein and 5 µM 1-NPN in 50 mM Tris–HCl buffer (pH 5.5 and pH 7.4) with 1% tween 20 was titrated with each ligand (5 mM stock in methanol) to final concentrations of 0, 2, 4, 6, 8, 10, 12, 14, 20, 24, 28, and 32 µM. The fluorescence intensity at 400 nm for each concentration was fitted to the One Site-Fit Ki model to determine the dissociation constant of competitor ligands (Ki) as follows: logEC50 = log (10^logKi*(1 + RadioligandNM/HotKdNM))[22],[57]. Here, RadioligandNM represents the concentration of fixed 1-NPN (nM), HotKdNM represents Kd (nM), and Ki represents the equilibrium dissociation constant (Molar). All experiments were conducted in triplicate and analyzed using GraphPad Prism 9 software (San Diego, CA, USA)[22].

## c1ccc(Nc2cccc3ccccc23)cc1 [1-NPN, N-phenyl-1-naphthylamine]
rSol g 2.1 protein [1]; pH 5.5
  Kd: 4.83 ± 0.03 µM
rSol g 2.1 protein [1]; pH 7.4
  Kd: 2.33 ± 0.05 µM

## C=CC(O)CCCCC (centres unmarked) [1-Octen-3-ol]
rSol g 2.1 protein [2]; pH 5.5
  Ki: 5610 nM
rSol g 2.1 protein [2]; pH 7.4
  Ki: 2000 nM

## C=CC(=C)CC/C=C(\C)CCC=C(C)C [(E)-β-Farnesene]
rSol g 2.1 protein [2]; pH 5.5
  Ki: 1240 nM
rSol g 2.1 protein [2]; pH 7.4
  Ki: 720 nM

## C/C1=C\CC/C(C)=C/CC(C)(C)/C=C/C1 [α-Caryophyllene]
rSol g 2.1 protein [2]; pH 5.5
  Ki: 16000 nM
rSol g 2.1 protein [2]; pH 7.4
  Ki: 1060 nM
